# Laboratory results: patent US20240148821A1, “PHARMACEUTICAL USE OF CYCLIC PEPTIDE COMPOUND” (CHUGAI SEIYAKU KABUSHIKI KAISHA, priority 2021, published 2024)
# Numbered stars: 1 amine (or outer) side, 2 acyl side, 3 side chain; on linkers, the order of the positions; unused ones are H or OH. Bridge positions count the residues as written; N and C are the ends. Square brackets hold non-standard residues; d marks the D form. Peptide text beside a SMILES is read from it. * marks the point of attachment. hPhe(3-Cl-4-CF3) = N[C@@H](CCc1ccc(C(F)(F)F)c(Cl)c1)C(=O)O; hPhe(3-F,4-CF3) = N[C@@H](CCc1ccc(C(F)(F)F)c(F)c1)C(=O)O; NMePhe(4-CF3) = CN[C@@H](Cc1ccc(C(F)(F)F)cc1)C(=O)O; hPhe(4-CF3) = N[C@@H](CCc1ccc(C(F)(F)F)cc1)C(=O)O; Pro(cis-4-Ph) = O=C(O)[C@@H]1C[C@H](c2ccccc2)CN1; X37 = CC(C)(C)NC(=O)COC[C@H](CC(=O)[*:1])N[*:2]; NMePhe(4-Cl) = CN[C@@H](Cc1ccc(Cl)cc1)C(=O)O; NEtPhe(2-Cl) = CCN[C@@H](Cc1ccccc1Cl)C(=O)O; NMePhe(4-Me) = CN[C@@H](Cc1ccc(C)cc1)C(=O)O; NMedβ3hAla = C[C@H](CC(=O)[*:2])N(C)[*:1]; Phe(3-Cl) = N[C@@H](Cc1cccc(Cl)c1)C(=O)O; Gly(Nα-CH2(4-Pyr)) = O=C(O)CNCc1ccncc1; NMeGly(cPent) = CN[C@H](C(=O)O)C1CCCC1; NMeCha = CN[C@@H](CC1CCCCC1)C(=O)O; X4 = C#CC[C@H](CC(=O)[*:2])N[*:1]; Hyp = O=C(O)[C@@H]1C[C@@H](O)CN1; NEtLeu = CCN[C@@H](CC(C)C)C(=O)O; NMeChg = CN[C@H](C(=O)O)C1CCCCC1; NMeF = CN[C@@H](Cc1ccccc1)C(=O)O; NMeI = CC[C@H](C)[C@H](NC)C(=O)O; X12 = O=C(CN(CC1COC1)[*:1])[*:2]; Gly(cBu) = N[C@H](C(=O)O)C1CCC1; NMeD = CN[C@@H](CC(=O)O)C(=O)O; NMeL = CN[C@@H](CC(C)C)C(=O)O; NMeV = CN[C@H](C(=O)O)C(C)C; d(β3hA) = C[C@@H](N)CC(=O)O; NMeS = CN[C@@H](CO)C(=O)O; NMeA = CN[C@@H](C)C(=O)O; Piperidide = C1CCN(*)CC1; Pyrrolidide = C1CCN(*)C1; Ac5c = NC1(C(=O)O)CCCC1; Aze = O=C(O)[C@@H]1CCN1; CH2CMe2OH = CC(C)(O)C*; NBuGly = CCCCNCC(=O)O; Aib = CC(C)(N)C(=O)O; Isopentyl = CC(C)CC*; Sar = CNCC(=O)O
# Biological target: protein-protein interaction between Kras and SOS1 (biotin-tagged human Kras loaded with GDP, His-tagged human SOS1) (Homo sapiens (Human), UniProt P01116, G12D)
# Assay: Protein-protein interaction inhibition between Kras and SOS1 (KrasG12D-SOS PPI) using AlphaScreen;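 note: kras produced in E. coli, Ni-coupled donor beads and streptavidin acceptor beads, excitation 680 nm with emission detected at 520–620 nm via singlet oxygen transfer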
# Type: biochemical
# Details: AlphaScreen; biotin-tagged human Kras loaded with GDP, His-tagged human SOS1; read-out: KRAS G12D-SOS PPI IC50
row,Compound,IC50 [µM]
1,CCCCN1CC(=O)N(C)CC(=O)N(C)[C@@H](COCCC(C)C)C(=O)N(C)CC(=O)N[C@@H](CCc2ccc(C(F)(F)F)c(Cl)c2)C(=O)N[C@@H](COCC(C)(C)O)C(=O)NC(C)(C)C(=O)N(C)[C@@H](CC(C)C)C(=O)N[C@H](C)CC(=O)N(C)[C@@H](CC(C)C)C(=O)N[C@@H]([C@@H](C)CC)C1=O [Compound 1473] (cyclo([Aib][NMeL][d(β3hA)][NMeL]I[NBuGly][Sar][NMeS](Isopentyl)[Sar][hPhe(3-Cl-4-CF3)]S(CH2CMe2OH))),0.39
2,CC[C@H](C)[C@@H]1NC(=O)[C@H](CC(C)C)N(C)C(=O)C[C@@H](C(=O)N2CCCCC2)N(C)C(=O)[C@H]([C@@H](C)CC)N(C)C(=O)C2(CCCC2)NC(=O)[C@@H]2CCCN2C(=O)[C@H](CCc2ccc(C(F)(F)F)c(Cl)c2)NC(=O)CN(C)C(=O)[C@H](C2CCCC2)N(C)C(=O)[C@@H]2CCN2C(=O)[C@H](C)N(C)C1=O [Compound 807] ([NMeL]I[NMeA][Aze][NMeGly(cPent)][Sar][hPhe(3-Cl-4-CF3)]P[Ac5c][NMeI][NMeD]-Piperidide; lactam N-11),0.00074
3,CC[C@H](C)[C@@H]1NC(=O)[C@H](CC(C)C)N(C)C(=O)C[C@@H](C(=O)N2CCCCC2)N(C)C(=O)[C@H](C2CCCCC2)N(C)C(=O)C2(CCCC2)NC(=O)CN(CC2COC2)C(=O)[C@H](CCc2ccc(C(F)(F)F)c(Cl)c2)NC(=O)CN(C)C(=O)[C@H](CC2CCCCC2)N(C)C(=O)CN(C)C(=O)CN(C)C1=O [Compound 2031] ([NMeL]I[Sar][Sar][NMeCha][Sar][hPhe(3-Cl-4-CF3)][X12][Ac5c][NMeChg][NMeD]-Piperidide; lactam N-11 (inferred); C-terminus assumed),0.00082
4,"CC[C@H](C)[C@@H]1NC(=O)[C@H](C)N(C)C(=O)C[C@@H](C(=O)N2CCCCC2)N(C)C(=O)[C@H](C(C)C)N(C)C(=O)C2(CCCC2)NC(=O)[C@H](Cc2ccccc2Cl)N(CC)C(=O)[C@H](CCc2ccc(C(F)(F)F)c(Cl)c2)NC(=O)CN(C)C(=O)[C@H](CC2CCCCC2)N(C)C(=O)CN(C)C(=O)CN(C)C1=O [Compound 2161, (8S,11S,17S,26S,29S,33S,36S)-8-[(2-chlorophenyl)methyl]-11-[2-[3-chloro-4-(trifluoromethyl)phenyl]ethyl]-17-(cyclohexylmethyl)-9-ethyl-36-isopropyl-15,18,21,24,29,30,34,37-octamethyl-26-[(1S)-1-methylpropyl]-33-(piperidine-1-carbonyl)-6,9,12,15,18,21,24,27,30,34,37-undecazaspiro[4.33]octatriacontane-7,10,13,16,19,22,25,28,31,35,38-undecone] ([NMeA]I[Sar][Sar][NMeCha][Sar][hPhe(3-Cl-4-CF3)][NEtPhe(2-Cl)][Ac5c][NMeV][NMeD]-Piperidide; lactam N-11)",0.48
5,CC[C@H](C)[C@@H]1NC(=O)[C@H](C)N(C)C(=O)C[C@@H](C)NC(=O)[C@H](C2CCCC2)N(C)C(=O)C2(CCCC2)NC(=O)[C@@H]2CCCN2C(=O)[C@H](CCc2ccc(C(F)(F)F)c(Cl)c2)NC(=O)[C@H]2CCCN2C(=O)[C@H](Cc2ccc(C(F)(F)F)cc2)N(C)C(=O)CN(C)C(=O)CN(C)C1=O [Compound 1470] (cyclo([Ac5c][NMeGly(cPent)][d(β3hA)][NMeA]I[Sar][Sar][NMePhe(4-CF3)][dP][hPhe(3-Cl-4-CF3)]P)),0.21
6,CC[C@H](C)[C@@H]1NC(=O)[C@H](C)N(C)C(=O)C[C@@H](C)N(C)C(=O)[C@H](CC(C)C)NC(=O)[C@H](Cc2ccccc2)N(C)C(=O)[C@H](CC(C)C)NC(=O)[C@H](CCc2ccc(C(F)(F)F)cc2)NC(=O)CN(C)C(=O)[C@H](Cc2ccc(Cl)cc2)N(C)C(=O)CN(C)C(=O)CN(C)C1=O [Compound 214] (cyclo(I[Sar][Sar][NMePhe(4-Cl)][Sar][hPhe(4-CF3)]L[NMeF]L[NMedβ3hAla][NMeA])),0.28
7,CC(C)C[C@H]1C(=O)N[C@@H](C2CCC2)C(=O)N(C)[C@@H](C)C(=O)N2CC[C@H]2C(=O)N(C)[C@@H](CC2CCCCC2)C(=O)N(C)CC(=O)N[C@@H](CCc2ccc(C(F)(F)F)c(Cl)c2)C(=O)N2CCC[C@H]2C(=O)NC2(CCCC2)C(=O)N(C)[C@@H](C(C)C)C(=O)N(C)[C@H](C(=O)N2CCCCC2)CC(=O)N1C [Compound 157] ([NMeL][Gly(cBu)][NMeA][Aze][NMeCha][Sar][hPhe(3-Cl-4-CF3)]P[Ac5c][NMeV][NMeD]-Piperidide; lactam N-11),0.0075
8,CCO[C@@H]1C[C@H]2C(=O)N(C)[C@@H](COCCC(C)C)C(=O)N(C)[C@@H](CC(C)C)C(=O)N[C@H](C(=O)N3CCCC3)CC(=O)N(C)[C@@H](C)C(=O)N[C@@H]([C@@H](C)CC)C(=O)N(C)CC(=O)N(C)CC(=O)N(C)[C@@H](Cc3ccc(Cl)cc3)C(=O)N(C)CC(=O)N[C@@H](Cc3cccc(Cl)c3)C(=O)N2C1 [Compound 925] ([NMeA]I[Sar][Sar][NMePhe(4-Cl)][Sar][Phe(3-Cl)][Hyp](Et)[NMeS](Isopentyl)[NMeL]D-Pyrrolidide; lactam N-11),0.36
9,CC[C@H](C)[C@@H]1NC(=O)[C@H](CC(C)C)N(CC)C(=O)C[C@@H](C)NC(=O)[C@H](C2CCCC2)N(C)C(=O)C2(CCCC2)NC(=O)[C@@H]2CCCN2C(=O)[C@H](CCc2ccc(C(F)(F)F)c(Cl)c2)NC(=O)CN(C)C(=O)[C@H](Cc2ccc(C)cc2)N(C)C(=O)[C@@H]2CCN2C(=O)[C@H](C)N(C)C1=O [Compound 531] (cyclo([Ac5c][NMeGly(cPent)][d(β3hA)][NEtLeu]I[NMeA][Aze][NMePhe(4-Me)][Sar][hPhe(3-Cl-4-CF3)]P)),0.0016
10,CC[C@H](C)[C@@H]1NC(=O)[C@H](CC(C)C)N(C)C(=O)C[C@@H](C(=O)N2CCCC2)N(C)C(=O)[C@H](C2CCCC2)N(C)C(=O)C2(CCCC2)NC(=O)[C@@H]2CCCN2C(=O)[C@H](CCc2ccc(C(F)(F)F)c(Cl)c2)NC(=O)CN(C)C(=O)[C@H](C2CCCC2)N(C)C(=O)[C@@H]2CCN2C(=O)[C@H](C)N(C)C1=O [Compound 201] ([NMeL]I[NMeA][Aze][NMeGly(cPent)][Sar][hPhe(3-Cl-4-CF3)]P[Ac5c][NMeGly(cPent)][NMeD]-Pyrrolidide; lactam N-11),0.00058
11,C#CC[C@@H]1CC(=O)N(C)[C@@H](C(C)C)C(=O)N[C@@H]([C@@H](C)CC)C(=O)N(C)CC(=O)N(C)CC(=O)N(C)[C@@H](Cc2ccc(Cl)cc2)C(=O)N(C)CC(=O)N[C@@H](CCc2ccc(C(F)(F)F)cc2)C(=O)N(C)[C@@H](CC(C)C)C(=O)NC2(CCCC2)C(=O)N(C)[C@@H](CC(C)C)C(=O)N1 [Compound 669] (cyclo([Ac5c][NMeL][X4][NMeV]I[Sar][Sar][NMePhe(4-Cl)][Sar][hPhe(4-CF3)][NMeL])),0.22
12,CC[C@H](C)[C@@H]1NC(=O)[C@H](CC(C)C)N(C)C(=O)C[C@@H](C(=O)N2CCCCC2)N(C)C(=O)[C@H](C2CCCCC2)N(C)C(=O)C2(CCCC2)NC(=O)CN(Cc2ccncc2)C(=O)[C@H](CCc2ccc(C(F)(F)F)c(Cl)c2)NC(=O)CN(C)C(=O)[C@H](CC2CCCCC2)N(C)C(=O)CN(C)C(=O)CN(C)C1=O [Compound 2033] ([NMeL]I[Sar][Sar][NMeCha][Sar][hPhe(3-Cl-4-CF3)][Gly(Nα-CH2(4-Pyr))][Ac5c][NMeChg][NMeD]-Piperidide; lactam N-11 (inferred); C-terminus assumed),0.00065
13,"CC[C@H](C)[C@@H]1NC(=O)[C@H](CC(C)C)N(C)C(=O)C[C@@H](C)N(C)C(=O)[C@H](C2CCCC2)N(C)C(=O)C2(CCCC2)NC(=O)[C@@H]2CCCN2C(=O)[C@H](CCc2ccc(C(F)(F)F)c(F)c2)NC(=O)CN(C)C(=O)[C@H](CC2CCCCC2)N(C)C(=O)[C@@H]2CCN2C(=O)[C@H](C)N(C)C1=O [Compound 49] (cyclo([Ac5c][NMeGly(cPent)][NMedβ3hAla][NMeL]I[NMeA][Aze][NMeCha][Sar][hPhe(3-F,4-CF3)]P))",0.012
14,CC[C@H](C)[C@@H]1NC(=O)[C@H](C)N(C)C(=O)C[C@@H](C)NC(=O)[C@H](CC(C)C)N(C)C(=O)[C@H](C(C)C)N(C)C(=O)[C@H](CC(C)C)N(C)C(=O)[C@H](CCc2ccc(C(F)(F)F)cc2)NC(=O)CN(C)C(=O)[C@H](Cc2ccc(Cl)cc2)N(C)C(=O)CN(C)C(=O)CN(C)C1=O [Compound 588] (cyclo(I[Sar][Sar][NMePhe(4-Cl)][Sar][hPhe(4-CF3)][NMeL][NMeV][NMeL][d(β3hA)][NMeA])),0.36
15,CC[C@H](C)[C@@H]1NC(=O)[C@H](CC(C)C)N(C)C(=O)C[C@@H](COCC(=O)NC(C)(C)C)NC(=O)[C@H](CC(C)C)N(C)C(=O)C(C)(C)NC(=O)[C@H](CC(C)C)N(C)C(=O)[C@H](CCc2ccc(C(F)(F)F)cc2)NC(=O)CN(C)C(=O)[C@H](COCCC(C)C)N(C)C(=O)CN(C)C(=O)CN(C)C1=O [Compound 1538] ([NMeL]I[Sar][Sar][NMeS](Isopentyl)[Sar][hPhe(4-CF3)][NMeL][Aib][NMeL]; linker N-C via X37),0.11
16,CC[C@H](C)[C@@H]1NC(=O)[C@H](CC(C)C)N(C)C(=O)C[C@@H](C(=O)N2CCCCC2)N(C)C(=O)[C@H](C2CCCCC2)N(C)C(=O)C2(CCCC2)NC(=O)[C@@H]2C[C@H](c3ccccc3)CN2C(=O)[C@H](CCc2ccc(C(F)(F)F)c(Cl)c2)NC(=O)CN(C)C(=O)[C@H](CC2CCCCC2)N(C)C(=O)CN(C)C(=O)CN(C)C1=O [Compound 428] ([NMeL]I[Sar][Sar][NMeCha][Sar][hPhe(3-Cl-4-CF3)][Pro(cis-4-Ph)][Ac5c][NMeChg][NMeD]-Piperidide; lactam N-11),0.0091
17,CC[C@H](C)[C@@H]1NC(=O)[C@H](CC(C)C)N(C)C(=O)C[C@@H](C(=O)N2CCCCC2)N(C)C(=O)[C@H](C(C)C)N(C)C(=O)C2(CCCC2)NC(=O)[C@@H]2CCCN2C(=O)[C@H](CCc2ccc(C(F)(F)F)c(Cl)c2)NC(=O)CN(C)C(=O)[C@H](COCCC(C)C)N(C)C(=O)[C@@H]2CCN2C(=O)[C@H](C)N(C)C1=O [Compound 470] ([NMeL]I[NMeA][Aze][NMeS](Isopentyl)[Sar][hPhe(3-Cl-4-CF3)]P[Ac5c][NMeV][NMeD]-Piperidide; lactam N-11),0.0022
